The values that follow come from ChEMBL document CHEMBL1131533, “Development of a three-dimensional CysLT1 (LTD4) antagonist model with an incorporated amino acid residue from the receptor” (J Med Chem, 1998).

The test addresses T1, Cysteinyl leukotriene receptor 1 (Cavia porcellus, UniProt Q2NNR5).
T1 sequence (Q2NNR5 whole entry): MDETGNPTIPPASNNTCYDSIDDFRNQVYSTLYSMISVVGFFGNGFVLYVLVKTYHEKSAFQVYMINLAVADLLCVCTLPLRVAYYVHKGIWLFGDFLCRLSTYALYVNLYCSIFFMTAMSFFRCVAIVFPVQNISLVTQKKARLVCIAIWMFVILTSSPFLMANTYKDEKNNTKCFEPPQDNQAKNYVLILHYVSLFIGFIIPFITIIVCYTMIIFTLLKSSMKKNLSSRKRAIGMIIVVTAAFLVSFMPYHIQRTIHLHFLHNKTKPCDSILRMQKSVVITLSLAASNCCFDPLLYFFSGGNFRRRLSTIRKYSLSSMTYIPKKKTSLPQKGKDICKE
Kind of test: Binding affinity towards Cysteinyl leukotriene D4 receptor (cysLT1) was measured by the displacement of [3H]LTD4 radioligand. For orientation: In a radioligand displacement assay an active substance lowers the binding of a labelled ligand.

SMILES strings stand for the structures.

`CCC(CC)(CC(=O)Nc1cccc(/C=C/c2nc(C3CCC3)cs2)c1)C(=O)O`: affinity was put at a Ki of 6.4 nM.

Consider `O=C(O)c1cccc2c(=O)cc(-c3cccc(/C=C/c4ccc5ccccc5n4)c3)oc12`, for which the half-maximal inhibitory concentration (IC50) (as a rule, the concentration needed to halve the response being measured) amounted to 17 nM. This counts as double-digit nanomolar.

As for `O=C(Nc1cccc2c(=O)cc(-c3nn[nH]n3)oc12)c1ccc(OCc2ccc3ccccc3n2)cc1`, the Ki (usually a dissociation constant, usually derived from enzyme kinetics or from competition with a known ligand) is 1.1 nM.

Consider `O=c1cc(-c2nnn[nH]2)oc2cc(OCc3cccc(OCc4ccc5ccccc5n4)c3)ccc12`, for which the Ki is 3 nM.

Compound `O=c1cc(-c2nnn[nH]2)oc2cc(/C=C/c3cccc(OCc4ccc5ccccc5n4)c3)ccc12` registered a Ki of 2.5 nM. The Ki values of the last two compounds are within 1.5-fold of each other.
